Source: ChEMBL document CHEMBL5352447, “Development of [1,2]oxazoloisoindoles tubulin polymerization inhibitors: Further chemical modifications and potential therapeutic effects against lymphomas” (Eur J Med Chem, 2022)
Activity calls are given as the source filed them. No cut-off for these calls is given here.

What was measured:
[1] = tested on: SU-DHL10; test: Antiproliferative activity against human SU-DHL-10 cells assessed as inhibition of cell proliferation incubated for 72 hrs by MTT assay; format: functional, cell-based; settings: SU-DHL10, 72 h
[2] = tested on: SU-DHL10; test: Antiproliferative activity against human SU-DHL-10 cells assessed as proliferating cells at 1 uM incubated for 72 hrs by MTT assay relative to control; format: functional
[3] = tested on: VL51; test: Induction of cell cycle arrest in human VL51 cells assessed as accumulation at G2/M phase at 50 nM incubated for 24 to 72 hrs by […]; format: functional; settings: time 24-72 hrs
[4] = tested on: VL51; test: Induction of cell cycle arrest in human VL51 cells assessed as accumulation at subG0 phase at early time point at 50 to 500 nM incubated upto 72 hrs by […]; format: functional; settings: dose 50-500 nM
[5] = tested on: VL51; test: Induction of apoptosis in human VL51 cells at 50 to 500 nM incubated for 24 to 72 hrs by annexin V-FITC/PI staining based analysis; format: functional, cell-based; settings: dose 50-500 nM, time 24-72 hrs
[6] = Antiproliferative activity against human MINO cells assessed as proliferating cells at 1 uM incubated for 72 hrs by MTT assay relative to control; format: functional
[7] = Antiproliferative activity against human HBL1 cells assessed as inhibition of cell proliferation incubated for 72 hrs by MTT assay; format: functional, cell-based; settings: HBL1, 72 h
[8] = tested on: PBMC; test: Induction of apoptosis in human PBMC cells at 500 nM incubated for 24 to 48 hrs by annexin V staining based analysis relative to control; format: toxicity, cell-based; settings: 0.5 µM, time 24-48 hrs
[9] = molecular target: Tubulin; test: Inhibition of tubulin assembly (unknown origin); format: protein-complex assay, Homo sapiens
[10] = Antiproliferative activity against human MINO cells assessed as inhibition of cell proliferation incubated for 72 hrs by MTT assay; format: functional, cell-based
[11] = tested on: VL51; test: Antiproliferative activity against human VL51 cells assessed as proliferating cells at 1 uM incubated for 72 hrs by MTT assay relative to control; format: functional
[12] = tested on: MINO; test: Induction of apoptosis in human MINO cells at 50 to 500 nM incubated for 24 to 72 hrs by annexin V-FITC/PI staining based analysis; format: functional, cell-based; settings: dose 50-500 nM, time 24-72 hrs
[13] = tested on: MINO; test: Induction of cell cycle arrest in human MINO cells assessed as accumulation at subG0 phase at early time point at 50 to 500 nM incubated upto 72 hrs by […]; format: functional; settings: dose 50-500 nM
[14] = tested on: VL51; test: Antiproliferative activity against human VL51 cells assessed as inhibition of cell proliferation incubated for 72 hrs by MTT assay; format: functional, cell-based; settings: VL51, 72 h
[15] = tested on: MCF7; test: Cytotoxicity against human MCF7 cells assessed as cell growth inhibition; format: functional, cell-based
[16] = tested on: MINO; test: Induction of cell cycle arrest in human MINO cells assessed as accumulation at G2/M phase at 50 nM incubated for 24 to 72 hrs by […]; format: functional; settings: time 24-72 hrs
[17] = Antiproliferative activity against human HBL1 cells assessed as proliferating cells at 1 uM incubated for 72 hrs by MTT assay relative to control; format: functional
[18] = molecular target: Tubulin (Homo sapiens) (UniProt P68371+Q9H4B7+P0DPH7+P68366+Q13509+Q71U36+P04350+Q3ZCM7+P07437+P68363+Q9BQE3+Q6PEY2+Q13885+Q9BVA1+Q9BUF5); test: Inhibition of [3H]Colchicine binding to tubulin (unknown origin) at 5 uM relative to control; format: protein-complex assay
[19] = tested on: MINO; test: Upregulation of CENPA in human MINO cells at 100 nM incubated for 8 to 24 hrs by RNA sequencing analysis; format: functional, cell-based; settings: time 8-24 hrs
[20] = tested on: MINO; test: Upregulation of CCNB2 in human MINO cells at 100 nM incubated for 8 to 24 hrs by RNA sequencing analysis; format: functional, cell-based; settings: time 8-24 hrs
[21] = tested on: MINO; test: Upregulation of PLK1 in human MINO cells at 100 nM incubated for 8 to 24 hrs by RNA sequencing analysis; format: functional, cell-based; settings: time 8-24 hrs
[22] = tested on: MINO; test: Upregulation of CCNB1 in human MINO cells at 100 nM incubated for 8 to 24 hrs by RNA sequencing analysis; format: functional, cell-based; settings: time 8-24 hrs
[23] = tested on: MINO; test: Upregulation of AURKA in human MINO cells at 100 nM incubated for 8 to 24 hrs by RNA sequencing analysis; format: functional, cell-based; settings: time 8-24 hrs
[24] = tested on: MINO; test: Upregulation of BIRC5 in human MINO cells at 100 nM incubated for 8 to 24 hrs by RNA sequencing analysis; format: functional, cell-based; settings: time 8-24 hrs
[25] = tested on: MINO; test: Upregulation of CENPE in human MINO cells at 100 nM incubated for 8 to 24 hrs by RNA sequencing analysis; format: functional, cell-based; settings: time 8-24 hrs

Row | Structure (SMILES) | IC50 [1] [nM] | Activity [2] [%] | Activity [6] [%] | IC50 [7] [nM] | IC50 [9] [nM] | IC50 [10] [nM] | Activity [11] [%] | IC50 [14] [nM] | IC50 [15] [nM] | Activity [17] [%] | inhibition [18] [%] | also measured
1 | COc1cc(Cn2cc3c(c2)-c2oncc2CC3)cc(OC)c1OC | 70 | 13.8 | 8.6 | 80 | 2300 | 70 | 28.1 | 120 | 210 | 7.3 | 80 | Activity [3]: Active; Activity [4]: Active; Activity [5]: Active; Activity [8]: 15%; Activity [12]: Active; Activity [13]: Active; Activity [16]: Active
2 | COc1ccc(Cn2cc3c(c2-c2ccccc2)CCc2cnoc2-3)cc1N | 260 | 13 | 10.5 | 270 | 1700 | 230 | 37.6 | 250 | 370 | 27.6 | 72 | 
3 | COc1ccc(Cn2cc3c(c2-c2ccc(OC)cc2)CCc2cnoc2-3)cc1 | 1700 | 47.4 | 29.9 | 1200 | 2000 | 1100 | 49.4 | 1100 | > 5000 | 57.1 | 55 | 
4 | COc1ccc(/C=C\c2cc(OC)c(OC)c(OC)c2)cc1O [COMBRETASTATIN A4] |  |  |  |  |  |  |  |  | 18 |  |  | 
5 | COc1ccc(Cn2cc3c(c2-c2ccccc2)CCc2cnoc2-3)cc1 | 280 | 13 | 8.4 | 250 | 2100 | 230 | 40.9 | 270 | 380 | 21.5 | 77 | 
6 | COc1ccc(Cn2cc3c(c2-c2ccccc2)CCc2c(CN4CCCC4)noc2-3)cc1 |  |  |  |  | 12000 |  |  |  | > 5000 |  |  | 
7 | COc1ccc(Cn2cc3c(c2-c2cc(OC)c(OC)c(OC)c2)CCc2cnoc2-3)cc1N | 100 | 12 | 9.31 | 90 | 1700 | 70 | 34.7 | 100 | 240 | 12.9 | 57 | 
8 | COc1cc(Cn2cc3c(c2)-c2oncc2CC3)cc(OC)c1 | 30 | 30.5 | 0.8 | 20 | 2800 | 20 | 38 | 40 | 290 | 7.1 | 88 | Activity [3]: Active; Activity [4]: Active; Activity [5]: Active; Activity [8]: 15%; Activity [19]: Active; Activity [20]: Active; Activity [21]: Active; Activity [12]: Active; Activity [22]: Active; Activity [23]: Active; Activity [13]: Active; Activity [16]: Active; Activity [24]: Active; Activity [25]: Active
9 | c1ccc(Cn2cc3c(c2-c2ccccc2)CCc2cnoc2-3)cc1 |  |  |  |  | 4600 |  |  |  | > 5000 |  | 21 | 
10 | CCOC(=O)c1c2c(cn1Cc1ccc(OC)cc1)-c1oncc1CC2 |  |  |  |  | 8000 |  |  |  | > 5000 |  |  | 
11 | COc1ccc(Cn2cc3c(c2-c2ccccc2)CCc2cnoc2-3)cc1OC |  |  |  |  | 3400 |  |  |  | 4500 |  | 34 | 
12 | COc1cccc(Cn2cc3c(c2)-c2oncc2CC3)c1 | 800 | 14 | 8.9 | 700 | 5200 | 700 | 44.7 | 1000 | 550 | 37.9 | 69 | 
13 | COc1ccc(Cn2cc3c(c2-c2ccccc2)CCc2cnoc2-3)cc1[N+](=O)[O-] |  |  |  |  | 1500 |  |  |  | 340 |  | 55 | 
14 | COc1ccc(Cn2cc3c(c2-c2cc(OC)c(OC)c(OC)c2)CCc2cnoc2-3)cc1 | 500 | 12.7 | 8.7 | 470 | 3200 | 370 | 37.9 | 270 | 600 | 30.7 | 34 | 
